Blank lines part the entries; values can stand above or below the molecule they belong to.
Assays:
HsPMM2 = target: T1, HsPMM2 (Homo sapiens, UniProt O15305); experiment: coupled PGM assay (G6PDH, NADPH at […] nm); type: biochemical; settings: 1 mM glucose 1-phosphate, 10 μM G-1,6-P, 1 mM MgCl2, pH 7.5, room temperature, 65 nM enzyme
T1 construct: gene PMM2; pET28a, His-tag cut with thrombin; E. coli BL21 Gold (DE3)
T1 sequence (O15305 2-246): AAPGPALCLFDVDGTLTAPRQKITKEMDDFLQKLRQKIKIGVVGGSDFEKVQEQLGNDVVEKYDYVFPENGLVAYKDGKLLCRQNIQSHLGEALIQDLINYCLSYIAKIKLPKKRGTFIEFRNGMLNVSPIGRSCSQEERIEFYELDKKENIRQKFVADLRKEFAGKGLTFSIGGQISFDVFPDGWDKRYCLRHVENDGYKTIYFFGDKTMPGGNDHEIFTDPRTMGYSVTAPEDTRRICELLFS

HsPMM1 = target: T2, HsPMM1 (Homo sapiens, UniProt Q92871); experiment: coupled PGM assay (G6PDH, NADPH at […] nm); type: biochemical; settings: 1 mM glucose 1-phosphate, 10 μM G-1,6-P, 1 mM MgCl2, pH 7.5, room temperature, 133 nM enzyme
T2 construct: gene PMM1; pET28a, His-tag cut with thrombin; E. coli BL21 Gold (DE3)
T2 sequence (Q92871 2-262): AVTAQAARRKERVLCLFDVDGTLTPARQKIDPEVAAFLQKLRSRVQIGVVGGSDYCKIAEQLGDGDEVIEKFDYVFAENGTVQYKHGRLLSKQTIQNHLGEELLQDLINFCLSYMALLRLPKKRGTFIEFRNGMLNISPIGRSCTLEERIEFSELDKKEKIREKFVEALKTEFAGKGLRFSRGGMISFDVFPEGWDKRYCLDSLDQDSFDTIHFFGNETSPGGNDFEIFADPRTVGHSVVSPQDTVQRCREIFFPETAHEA

HAD5 (PfHAD5) = target: T3, HAD5 (PfHAD5) (Plasmodium falciparum, UniProt Q8IJM5); experiment: linked PMM assay, activation; type: biochemical; settings: 12.5 μM G-1,6-P, 1 mM mannose 6-phosphate, pH 7.5, room temperature; activator
T3 construct: gene PF3D7_1017400; pET28a, N-terminal His-tag cut with thrombin; E. coli BL21 Gold (DE3); size-exclusion purified
T3 sequence (Q8IJM5 1-244): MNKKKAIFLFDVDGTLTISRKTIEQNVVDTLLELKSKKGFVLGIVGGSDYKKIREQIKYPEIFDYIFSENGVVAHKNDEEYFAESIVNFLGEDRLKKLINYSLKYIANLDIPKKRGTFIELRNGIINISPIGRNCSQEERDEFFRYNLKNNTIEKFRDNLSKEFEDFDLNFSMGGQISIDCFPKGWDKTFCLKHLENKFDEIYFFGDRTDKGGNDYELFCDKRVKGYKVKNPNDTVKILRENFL

purified protein = substrate: O=P(O)(O)O[C@H]1O[C@H](CO)[C@@H](O)[C@H](O)[C@H]1O; experiment: purified protein; settings: G1P to G6P, 10 μM G-1,6-P, 0.75 mM NADP+, 25 mM Tris-HCl, 25 mM NaCl, 1 mM MgCl2, pH 7.5, room temperature

IC50 (HsPMM2): 413 ± 41 µM | IC50 (HsPMM1): 895 ± 66 µM
Molecule: O=P(O)(O)C[C@H]1O[C@H](CNO)[C@@H](O)[C@H](O)[C@H]1O [D9, compound D9]

Molecule: O=P(O)(O)OC[C@H]1O[C@H](OP(=O)(O)O)[C@H](O)[C@@H](O)[C@@H]1O [glucose-1,6-bisphosphate]
linked PMM assay, activation (HAD5 (PfHAD5)): upon addition of the known cofactor glucose-1,6-bisphosphate

B1: HAD5 (PfHAD5) (Plasmodium falciparum 3D7) (protein)
chain: T3 sequence (Q8IJM5 1-244)
Km (purified protein): 5.2 ± 1.4 µM | kcat (purified protein): 7.8e-06 ± 1.2e-06 s⁻¹ | kcat/Km (purified protein): 1.5 M⁻¹ s⁻¹
